# Results taken from ChEMBL document CHEMBL4330185, “Computer-Assisted Discovery and Structural Optimization of a Novel Retinoid X Receptor Agonist Chemotype” (ACS Med Chem Lett, 2019).
# The source made the active and inactive calls. No cut-off for these calls is given here.
# How the values were obtained:
# [1] = biological target: T1, Retinoic acid receptor RXR-beta (Homo sapiens) (UniProt P28702); experiment: Agonist activity at human Gal4-DBD fused RXRbeta LBD expressed in HEK293T cells after 12 to 14 hrs by luciferase reporter gene assay relative to bexarotene; assay type: cell-based
# T1 sequence (whole entry): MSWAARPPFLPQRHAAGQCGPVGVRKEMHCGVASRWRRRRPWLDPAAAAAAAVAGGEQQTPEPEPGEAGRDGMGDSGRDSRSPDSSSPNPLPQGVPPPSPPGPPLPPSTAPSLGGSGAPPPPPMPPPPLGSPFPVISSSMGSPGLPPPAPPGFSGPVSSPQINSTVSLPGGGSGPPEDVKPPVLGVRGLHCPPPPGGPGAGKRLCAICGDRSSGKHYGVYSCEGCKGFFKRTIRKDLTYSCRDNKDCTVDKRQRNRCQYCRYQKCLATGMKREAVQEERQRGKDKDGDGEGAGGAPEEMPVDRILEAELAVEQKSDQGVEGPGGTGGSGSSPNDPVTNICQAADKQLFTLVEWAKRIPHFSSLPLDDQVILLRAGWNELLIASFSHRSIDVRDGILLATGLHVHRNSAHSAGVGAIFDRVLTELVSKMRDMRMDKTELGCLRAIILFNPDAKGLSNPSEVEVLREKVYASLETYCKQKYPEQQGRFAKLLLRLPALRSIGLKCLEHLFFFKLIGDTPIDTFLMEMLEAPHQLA
# [2] = biological target: T2, Retinoic acid receptor RXR-alpha (Homo sapiens) (UniProt P19793); experiment: Agonist activity at human Gal4-DBD fused RXRalpha LBD expressed in HEK293T cells after 12 to 14 hrs by luciferase reporter gene assay relative to bexarotene; assay type: cell-based
# T2 sequence (whole entry): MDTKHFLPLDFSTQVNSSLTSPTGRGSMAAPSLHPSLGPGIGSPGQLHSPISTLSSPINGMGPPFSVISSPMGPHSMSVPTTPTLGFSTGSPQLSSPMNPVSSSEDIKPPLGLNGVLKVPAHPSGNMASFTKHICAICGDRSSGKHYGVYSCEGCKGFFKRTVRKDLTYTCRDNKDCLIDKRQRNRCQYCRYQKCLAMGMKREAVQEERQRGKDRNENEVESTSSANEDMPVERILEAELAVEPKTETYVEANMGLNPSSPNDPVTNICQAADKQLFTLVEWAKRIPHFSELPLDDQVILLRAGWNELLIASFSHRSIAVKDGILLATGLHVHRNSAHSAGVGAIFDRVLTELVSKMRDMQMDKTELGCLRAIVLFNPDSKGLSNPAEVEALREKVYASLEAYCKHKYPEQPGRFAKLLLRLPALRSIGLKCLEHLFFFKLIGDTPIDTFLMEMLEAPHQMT
# [3] = biological target: T3, Retinoic acid receptor RXR-gamma (Homo sapiens) (UniProt P48443); experiment: Agonist activity at human Gal4-DBD fused RXRgamma LBD expressed in HEK293T cells after 12 to 14 hrs by luciferase reporter gene assay relative to bexarotene; assay type: cell-based
# T3 sequence (whole entry): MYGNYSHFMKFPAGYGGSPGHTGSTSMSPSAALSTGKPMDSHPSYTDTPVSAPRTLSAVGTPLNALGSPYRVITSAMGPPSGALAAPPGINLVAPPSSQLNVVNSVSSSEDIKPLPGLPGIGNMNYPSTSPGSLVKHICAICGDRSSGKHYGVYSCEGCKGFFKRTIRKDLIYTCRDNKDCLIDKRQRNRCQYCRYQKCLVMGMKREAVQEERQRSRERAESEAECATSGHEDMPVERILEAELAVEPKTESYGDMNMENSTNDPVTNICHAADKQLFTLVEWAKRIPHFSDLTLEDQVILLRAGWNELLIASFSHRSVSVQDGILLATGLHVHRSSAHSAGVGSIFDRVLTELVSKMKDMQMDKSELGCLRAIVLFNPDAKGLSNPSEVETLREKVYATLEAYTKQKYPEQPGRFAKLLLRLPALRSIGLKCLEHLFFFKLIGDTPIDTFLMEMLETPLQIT
# [4] = biological target: T4, Retinoic acid receptor RXR-alpha (Homo sapiens, UniProt P19793); experiment: Agonist activity at human Gal4-DBD fused RXRalpha LBD expressed in HEK293T cells after 12 to 14 hrs by luciferase reporter gene assay; assay type: cell-based
# T4 sequence (P19793 whole entry): T2 sequence (whole entry)
# [5] = biological target: T5, Retinoic acid receptor RXR-beta (Homo sapiens, UniProt P28702); experiment: Agonist activity at human Gal4-DBD fused RXRbeta LBD expressed in HEK293T cells after 12 to 14 hrs by luciferase reporter gene assay; assay type: cell-based
# T5 sequence (P28702 whole entry): T1 sequence (whole entry)
# [6] = biological target: T6, Retinoic acid receptor RXR-gamma (Homo sapiens, UniProt P48443); experiment: Agonist activity at human Gal4-DBD fused RXRgamma LBD expressed in HEK293T cells after 12 to 14 hrs by luciferase reporter gene assay; assay type: cell-based
# T6 sequence (P48443 whole entry): T3 sequence (whole entry)
# [7] = biological target: T3, Retinoic acid receptor RXR-gamma (Homo sapiens); experiment: Agonist activity at human Gal4-DBD fused RXRgamma LBD expressed in HEK293T cells at 30 uM after 12 to 14 hrs by luciferase reporter gene assay; assay type: cell-based
# [8] = biological target: T2, Retinoic acid receptor RXR-alpha (Homo sapiens); experiment: Agonist activity at human Gal4-DBD fused RXRalpha LBD expressed in HEK293T cells at 10 uM after 12 to 14 hrs by luciferase reporter gene assay; assay type: cell-based
# [9] = Aqueous solubility of the compound after 24 hrs by HPLC analysis; assay type: physicochemical; details: water
# HepG2 = experiment: Cytotoxicity against human HepG2 cells up to 100 uM after 48 hrs by WST1 assay; assay type: cell-based; details: hepg2, 48 h
# [10] = Lipophilicity, log P of the compound by HPLC analysis; assay type: physicochemical
Compound,Emax [1] [%],Emax [2] [%],Emax [3] [%],EC50 ([4]; read-out: EC50) [µM],EC50 ([5]; read-out: EC50) [µM],EC50 ([6]; read-out: EC50) [µM],further results
O=C(O)c1ccc(COc2ccc(C(F)(F)F)cc2C(F)(F)F)cc1,66,118,49,6,4.3,11,
O=C(O)c1ccc(COc2ccccc2)cc1,,,,> 30,> 30,> 30,
O=C(O)c1ccc(COc2ccccc2OC(F)(F)F)cc1,18,26,25,1.1,1.9,4.2,
O=C(O)c1ccc(COc2ccc(Cl)cc2)cc1,,,,> 30,> 30,> 30,
O=C(O)c1ccc(OCc2ccccc2-c2ccccc2)cc1,,,,> 30,> 30,,EC50 [6]: Nd(Toxic)
O=C(O)c1ccc(OCc2cccc(Cl)c2)cc1,24,27,29,27,28,29,
O=C(O)c1ccc(COc2ccccc2F)cc1,,,,> 30,> 30,> 30,
Cc1ccccc1OCc1ccc(C(=O)O)cc1,27,24,19,5,8.6,19,
CC(C)(C)c1ccc(OCc2ccc(C(=O)O)cc2)c(C(C)(C)C)c1,,,,,,,EC50 [4]: Nd(Toxic); EC50 [5]: Nd(Toxic); EC50 [6]: Nd(Toxic)
CC(C)(C)c1ccc(OCc2ccc(C(=O)O)cc2)cc1,15,16,,7.8,8.9,> 30,Activity [8]: Active
CC(C)(C)c1ccc(OCc2ccc(C(=O)O)cc2)c(-c2ccccc2)c1,,,,> 30,> 30,> 30,
CC(C)(C)c1ccccc1OCc1ccc(C(=O)O)cc1,12,11,21,0.16,0.37,1.1,
O=C(O)c1ccc(COc2ccccc2Cl)cc1,31,58,,9.9,8.3,> 30,
C=C(c1ccc(C(=O)O)cc1)c1cc2c(cc1C)C(C)(C)CCC2(C)C [BEXAROTENE],,,,,,,solubility at 24 h [9]: 0.31 µg/mL; Activity (HepG2): Non-Toxic; logP [10]: 5.2
Cc1ccc(OCc2ccc(C(=O)O)cc2)c(-c2ccccc2)c1,,,,> 30,> 30,,EC50 [6]: Nd(Toxic)
CC(C)(C)c1ccc(OCc2ccc(C(=O)O)cc2)c(Cl)c1,36,37,14,4.2,5.3,4,
COc1ccccc1OCc1ccc(C(=O)O)cc1,,21,,29,> 30,> 30,
O=C(O)CCCc1ccc(COc2ccc3c(c2)CCC3)cc1,,,,,,,EC50 [4]: Nd(Toxic); EC50 [5]: Nd(Toxic); EC50 [6]: Nd(Toxic)
CC(C)c1ccc(OCc2ccc(C(=O)O)cc2)cc1,9.5,11,,16,16,,Activity [7]: inactive
O=C(O)c1ccc(COc2ccccc2C(F)(F)F)cc1,22,22,52,1.1,2.1,10,

# More lines, main results first:
Emax [1] [%],Emax [2] [%],Emax [3] [%],EC50 ([4]; read-out: EC50) [µM],EC50 ([5]; read-out: EC50) [µM],EC50 ([6]; read-out: EC50) [µM],Compound,further results
25,,,> 30,21,> 30,O=C(O)c1ccc(OCc2ccc3c(c2)CCC3)cc1,
7.4,11,,28,35,,CCc1ccc(OCc2ccc(C(=O)O)cc2)cc1,Activity [7]: inactive
29,28,19,6.7,10,21,O=C(O)CCc1ccc(COc2ccc3c(c2)CCC3)cc1,
,,,> 30,> 30,> 30,O=C(O)c1ccc(COc2cc3c(cc2-c2ccccc2)CCC3)cc1,
26,54,9.3,17,20,44,O=C(O)c1ccc(COc2cccc(Cl)c2)cc1,
,,,> 30,> 30,> 30,O=C(O)c1ccc(CNc2ccc3c(c2)CCC3)cc1,
,,,> 30,> 30,> 30,O=C(O)c1ccccc1COc1ccc2c(c1)CCC2,
25,19,,24,29,> 30,O=C(O)c1ccc(COc2ccc(I)cc2)cc1,
9.9,47,8.8,13,18,22,O=C(O)Cc1ccc(COc2ccc3c(c2)CCC3)cc1,
15,22,8.5,10,9.9,30,CN(Cc1ccc(C(=O)O)cc1)c1ccc2c(c1)CCC2,
36,21,,40,48,> 30,O=C(O)c1ccc(COc2ccc(Br)cc2)cc1,
